Laboratory results taken from patent US20250223303A1, “TRICYCLIC BORONIC ACID DERIVATIVE, AND PREPARATION METHOD THEREFOR AND APPLICATION THEREOF” (priority 2021, published 2025).

What was measured:
[1] = tested on: Acinetobacter baumannii ARLG-1853 OXA-23; assay: MIC test of compounds in combination with antibiotics, Acinetobacter baumannii ARLG-1853; details: Acinetobacter baumannii, ARLG1853OXA23
Method: (§15) 2-Fold gradient dilution of antibiotics: 300 μL of CAMHVIB medium was added to columns 2-12 of a 96-deep well plate. In column 1, 24 μL of antibiotic stock solution and 576 µL of CAMHB medium were added and mixed well, with a concentration of 512 μg/mL. 300 µL of antibiotic solution was transferred from the column 1 to the second column and mixed well. The process was repeated until column 11, and the column 12 was a blank control.
(§16) Dilution of combined compounds: the compound was diluted 400-fold to 32 μg/ml with CAMHB medium.
(§17) Working solution aliquoting: 25 μL of antibiotics was aliquoted into the 96-U bottom plate with a pipette, and 25 μL of combined compound was added to each well. If antibiotics were used alone, 25 μL of CAMHB medium was added.
(§18) Inoculum solution preparation: 5-6 single colonies were selected from the plate and suspended in normal saline. The bacterial suspension was adjusted to 0.2 (i.e., 0.5 McFarland turbidity, with a bacterial concentration was about 1 to 2×10^8 CFU/mL) with a turbidity meter. The bacterial suspension was diluted 100-fold with CAMHB medium for later use.
(§19) Inoculation: 50 μL of inoculum solution was transferred to the above 50 μL compound plate with a pipette.
(§20) Culture: The 96-U bottom plate was placed in an incubator at 37° C. for 18 to 20 h.

[2] = tested on: Escherichia coli ARLG 2829; assay: MIC test of compounds in combination with antibiotics, Escherichia coli ARLG 2829; details: Escherichia coli, ARLG2829
[3] = tested on: Klebsiella pneumoniae ATCC BAA-2470; assay: MIC test of compounds in combination with antibiotics, Klebsiella pneumoniae ATCC BAA-2470; details: Klebsiella pneumoniae, ATCCBAA2470
Method: Strain preparation: the strains to be tested were streaked from glycerol tube at −80° C. onto Mueller Hinton II Agar plates. The plates were then placed in a 37° C. incubator and cultured for 18-24 hours.
Media preparation: CAMHB (Mueller Hinton II Broth): 22 g of powder was dissolved in 1 L of purified water and sterilized at 121° C. for 10 min for use. Saline: 8.5 g NaCl was dissolved in 1 L of pure water and sterilized at 121° C. for 30 min for use.
Preparation of compound and antibiotic stock solutions: the compound and antibiotic were dissolved in DMSO or water to 12.8 mg/mL.
as §15, §16, §17, §18, §19, §20
After the incubation, bacterial growth was visually observed, and the test plate was photographed and recorded.

[4] = tested on: Acinetobacter baumannii ARLG-1791 OXA-23; assay: MIC test of compounds in combination with antibiotics, Acinetobacter baumannii ARLG-1791; details: Acinetobacter baumannii, ARLG1791OXA23
Method: as §15, §16, §17, §18, §19, §20

[5] = tested on: Acinetobacter baumannii WX-AB013; assay: MIC test of compounds in combination with antibiotics, Acinetobacter baumannii WX-AB013; details: Acinetobacter baumannii, WXAB013
Method: as §15, §16, §17, §18, §19, §20

[6] = tested on: Acinetobacter baumannii ARLG-1809 OXA-23; assay: MIC test of compounds in combination with antibiotics, Acinetobacter baumannii ARLG-1809; details: Acinetobacter baumannii, ARLG1809OXA23
Method: as §15, §16, §17, §18, §19, §20

[7] = tested on: Acinetobacter baumannii WX-AB005; assay: MIC test of compounds in combination with antibiotics, Acinetobacter baumannii WX-AB005; details: Acinetobacter baumannii, WXAB005
Method: as §15, §16, §17, §18, §19, §20

[8] = tested on: Klebsiella pneumoniae ARLG 1196; assay: MIC test of compounds in combination with antibiotics, Klebsiella pneumoniae ARLG 1196; details: Klebsiella pneumoniae, ARLG1196
[9] = tested on: Klebsiella pneumoniae ATCC BAA-1705; assay: MIC test of compounds in combination with antibiotics, Klebsiella pneumoniae ATCC BAA-1705; details: Klebsiella pneumoniae, ATCCBAA1705
[10] = tested on: Acinetobacter baumannii ARLG-1852 OXA-23; assay: MIC test of compounds in combination with antibiotics, Acinetobacter baumannii ARLG-1852; details: Acinetobacter baumannii, ARLG1852OXA23
Method: as §15, §16, §17, §18, §19, §20

OXA-10 = target: T1, OXA-10 (Pseudomonas aeruginosa, UniProt P14489); assay: Enzyme activity test (FC5 fluorescent substrate), OXA-10; type: biochemical; details: enzyme 350 pM, substrate FC5 50 μM
T1 construct: purchased GenScript Biotech Co., Ltd
T1 sequence (P14489 20-266): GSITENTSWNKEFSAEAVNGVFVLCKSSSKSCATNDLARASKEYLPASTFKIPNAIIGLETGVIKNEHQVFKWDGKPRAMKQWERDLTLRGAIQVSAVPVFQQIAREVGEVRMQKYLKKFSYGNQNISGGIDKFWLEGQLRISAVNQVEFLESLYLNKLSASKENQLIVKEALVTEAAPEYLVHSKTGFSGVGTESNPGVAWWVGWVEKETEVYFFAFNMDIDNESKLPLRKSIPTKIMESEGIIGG
Method: (§1) Compound stock solution: the compound was prepared as a 50 mM DMSO stock solution. […] After aliquoting, the compound stock solutions were stored at −20° C.
(§2) Preparation and storage of antibiotic substrate stock solution: antibiotic fluorescent substrate FC5 was synthesized internally and prepared as a 2 mM stock solution, which was stored at −20° C. after aliquoting.
(§3) Storage of β-lactamases: each […] was synthesized by GenScript Biotech Co., Ltd., and stored at −80° C. after aliquoting to avoid repeated freezing and thawing.
(§4) Preparation of enzyme activity reaction buffer: SBL buffer: PBS pH 7.4, 0.01% (v/v) Triton X-100; MBL buffer: 50 Mm HEPES in PBS pH 7.2, 1 μM ZnSO4, 1 μg/mL BSA, 0.010% v/v Triton X-100
(§5) a) The compound to be tested and buffer were taken out and warmed to room temperature.
(§6) b) Each compound was diluted with DMSO and buffer to the initial experimental concentration (Table 2), and then the compound was diluted 3-fold for a total of 10 concentrations.
(§7) c) Diluted compounds were added to wells 1 to 20 of a 384-well black plate at 2 replicate wells per concentration, 5 μL per well. 5 µL of DMSO was added to wells 21 to 24.
(§8) d) Each enzyme was diluted to the experimental concentration (Table 2) in SBL and MBL buffers, and finally 35 μL/well was added, with a total of 22 wells. 35 μL buffer was added to wells 23 to 24. Wells 21 to well 22 served as the maximum test values (Max), while wells 23 to 24 were designated as the minimum test values (Min).
(§9) e) The 384-well plate was centrifuged quickly and incubated for 10 minutes at room temperature.
(§10) f) The antibiotic substrate FC5 was diluted in buffer to the experimental concentration of each enzyme (Table 2).
(§11) g) The incubated 384-well plate was taken out and FC-5 was added to wells […]. The 384-well plate was centrifuged rapidly and promptly transferred to a microplate reader for reading.
(§12) h) The fluorescence intensity was measured at 355 nm excitation light/460 nm emission light in the microplate reader, and the fluorescence intensity was measured every three minutes for a total of 10 measurements.
(§13) Initial velocity of enzyme reaction V: Subtract the background reading (Min wells) without enzyme from each fluorescence intensity reading, and then perform on a linear regression analysis on each compound concentration group. The slope is the initial velocity of enzyme reaction (V) at each compound concentration.
(§14) Dose-effect curve and IC50 calculation of compounds: The initial velocity of enzyme reaction under the effect of each concentration of compounds was subjected to nonlinear regression fitting. The IC50 (half-maximal inhibitory concentration) of each compound was calculated using the formula […] (Vi: the initial velocity of enzyme reaction at each compound concentration; V0: initial velocity of enzyme reaction without the compound (Max wells). The software used was Graphpad prism 8.

OXA-23 = target: T2, OXA-23 (Acinetobacter baumannii, UniProt Q9L4P2); assay: Enzyme activity test (FC5 fluorescent substrate), OXA-23; type: biochemical; details: enzyme 650 pM, substrate FC5 50 μM
T2 construct: purchased GenScript Biotech Co., Ltd
T2 sequence (Q9L4P2 18-273): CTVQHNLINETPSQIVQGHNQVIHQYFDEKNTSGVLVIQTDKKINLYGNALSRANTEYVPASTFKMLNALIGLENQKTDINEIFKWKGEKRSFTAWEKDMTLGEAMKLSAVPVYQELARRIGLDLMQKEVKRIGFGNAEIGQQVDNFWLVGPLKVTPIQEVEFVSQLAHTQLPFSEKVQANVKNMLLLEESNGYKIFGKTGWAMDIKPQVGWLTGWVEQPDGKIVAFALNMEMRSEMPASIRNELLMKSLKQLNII
Method: as §1, §2, §3, §4, §5, §6, §7, §8, §9, §10, §11, §12, §13, §14

IMP-1 = target: T3, IMP-1 (Serratia marcescens, UniProt P52699); assay: Enzyme activity test (FC5 fluorescent substrate), IMP-1; type: biochemical; details: enzyme 20 pM, substrate FC5 15 μM
T3 construct: purchased GenScript Biotech Co., Ltd
T3 sequence (P52699 19-246 limits assumed): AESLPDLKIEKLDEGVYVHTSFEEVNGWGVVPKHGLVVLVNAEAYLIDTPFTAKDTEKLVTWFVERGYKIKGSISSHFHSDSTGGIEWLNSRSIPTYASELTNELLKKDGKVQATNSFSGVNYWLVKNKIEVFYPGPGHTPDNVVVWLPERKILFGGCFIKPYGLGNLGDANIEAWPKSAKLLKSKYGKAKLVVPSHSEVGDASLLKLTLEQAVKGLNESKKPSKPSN
Method: as §1, §2, §3, §4, §5, §6, §7, §8, §9, §10, §11, §12, §13, §14

OXA-48 = target: T4, OXA-48 (Klebsiella pneumoniae, UniProt Q6XEC0); assay: Enzyme activity test (FC5 fluorescent substrate), OXA-48; type: biochemical; details: enzyme 650 pM, substrate FC5 125 μM
T4 construct: purchased GenScript Biotech Co., Ltd
T4 sequence (Q6XEC0 23-265 limits assumed): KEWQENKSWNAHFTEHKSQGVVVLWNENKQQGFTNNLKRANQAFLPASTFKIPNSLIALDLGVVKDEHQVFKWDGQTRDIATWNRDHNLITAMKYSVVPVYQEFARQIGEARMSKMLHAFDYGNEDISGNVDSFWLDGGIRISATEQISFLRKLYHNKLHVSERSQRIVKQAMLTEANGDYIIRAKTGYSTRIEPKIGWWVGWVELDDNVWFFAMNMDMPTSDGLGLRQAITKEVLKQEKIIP
Method: as §1, §2, §3, §4, §5, §6, §7, §8, §9, §10, §11, §12, §13, §14

VIM-1 = target: T5, VIM-1 (Pseudomonas aeruginosa, UniProt A0A0F7KYQ8); assay: Enzyme activity test (FC5 fluorescent substrate), VIM-1; type: biochemical; details: enzyme 70 pM, substrate FC5 10 μM
T5 construct: purchased GenScript Biotech Co., Ltd
Method: as §1, §2, §3, §4, §5, §6, §7, §8, §9, §10, §11, §12, §13, §14

NDM-1 = target: T6, NDM-1 (Klebsiella pneumoniae, UniProt C7C422); assay: Enzyme activity test (FC5 fluorescent substrate), NDM-1; type: biochemical; details: enzyme 6 pM, substrate FC5 15 μM, MBL buffer
T6 construct: purchased GenScript Biotech Co., Ltd
T6 sequence (C7C422 29-270 limits assumed): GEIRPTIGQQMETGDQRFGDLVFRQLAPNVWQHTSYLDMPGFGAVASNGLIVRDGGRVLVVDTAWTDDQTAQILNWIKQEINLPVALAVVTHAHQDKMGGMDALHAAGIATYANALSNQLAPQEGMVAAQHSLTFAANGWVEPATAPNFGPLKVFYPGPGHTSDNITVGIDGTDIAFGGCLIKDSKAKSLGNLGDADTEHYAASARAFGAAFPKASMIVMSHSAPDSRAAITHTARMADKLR
Method: as §1, §2, §3, §4, §5, §6, §7, §8, §9, §10, §11, §12, §13, §14

VIM-2 = target: T7, VIM-2 (Escherichia coli, UniProt Q5U7L7); assay: Enzyme activity test (FC5 fluorescent substrate), VIM-2; type: biochemical; details: enzyme 25 pM, substrate FC5 20 μM
T7 construct: purchased GenScript Biotech Co., Ltd
Method: as §1, §2, §3, §4, §5, §6, §7, §8, §9, §10, §11, §12, §13, §14

NDM-5 = NDM-5 (Klebsiella pneumoniae, UniProt C7C422, M154L/V88L); assay: Enzyme activity test (FC5 fluorescent substrate), NDM-5; type: biochemical
NDM-5, sequence (C7C422 29-270 V88L/M154L): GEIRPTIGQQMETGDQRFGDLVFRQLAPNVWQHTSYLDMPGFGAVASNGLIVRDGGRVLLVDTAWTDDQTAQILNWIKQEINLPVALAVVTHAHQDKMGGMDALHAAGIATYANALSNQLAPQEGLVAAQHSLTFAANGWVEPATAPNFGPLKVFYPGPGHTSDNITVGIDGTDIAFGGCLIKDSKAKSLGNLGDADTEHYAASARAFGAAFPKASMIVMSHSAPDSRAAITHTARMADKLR
Method: as §1, §2, §3, §4, §5, §6, §7, §8
e) The 384-well plate was centrifuged quickly and incubated for 10 minutes at room temperature. […]
as §11, §12
Initial velocity of enzyme reaction V: Subtract the background reading (Min wells) without enzyme from each fluorescence intensity reading, and then perform on a linear regression analysis on each compound concentration group. […]
as §14

KPC-2 = target: T8, KPC-2 (Klebsiella pneumoniae, UniProt Q9F663); assay: Enzyme activity test (FC5 fluorescent substrate), KPC-2; type: biochemical; details: enzyme 45 pM, substrate FC5 25 μM
T8 construct: purchased GenScript Biotech Co., Ltd
T8 sequence (Q9F663 25-293 limits assumed): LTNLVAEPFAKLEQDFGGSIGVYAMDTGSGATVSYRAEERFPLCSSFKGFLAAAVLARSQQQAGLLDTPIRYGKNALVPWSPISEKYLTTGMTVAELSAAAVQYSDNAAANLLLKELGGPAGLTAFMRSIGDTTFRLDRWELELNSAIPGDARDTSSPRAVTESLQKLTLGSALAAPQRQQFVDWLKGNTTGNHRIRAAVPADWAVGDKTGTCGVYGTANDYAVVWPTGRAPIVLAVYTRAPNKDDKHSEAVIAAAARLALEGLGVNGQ
Method: as §1, §2, §3, §4, §5, §6, §7, §8, §9, §10, §11, §12, §13, §14

Ampc = Ampc (UniProt P24735); assay: Enzyme activity test (FC5 fluorescent substrate), AmpC; type: biochemical; details: enzyme 25 pM, substrate FC5 15 μM
Method: as §1, §2, §3, §4, §5, §6, §7, §8, §9, §10, §11, §12, §13, §14

CTX-M-15 = target: T9, CTX-M-15 (Escherichia coli, UniProt Q9EXV5); assay: Enzyme activity test (FC5 fluorescent substrate), CTX-M-15; type: biochemical; details: enzyme 45 pM, substrate FC5 50 μM
T9 construct: purchased GenScript Biotech Co., Ltd
T9 sequence (Q9EXV5 entry or part of it): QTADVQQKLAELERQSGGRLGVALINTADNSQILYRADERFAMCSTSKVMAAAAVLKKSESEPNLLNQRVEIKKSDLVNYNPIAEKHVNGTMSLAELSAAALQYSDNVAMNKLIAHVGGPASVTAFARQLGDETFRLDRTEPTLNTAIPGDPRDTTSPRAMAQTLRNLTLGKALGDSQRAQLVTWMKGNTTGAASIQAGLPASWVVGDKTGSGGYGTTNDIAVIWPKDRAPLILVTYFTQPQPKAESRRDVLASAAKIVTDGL
Method: as §1, §2, §3, §4, §5, §6, §7, §8, §9, §10, §11, §12, §13, §14

SMILES | MIC [1] [µg/mL] | MIC [2] [µg/mL] | MIC [3] [µg/mL] | MIC [4] [µg/mL] | MIC [5] [µg/mL] | MIC [6] [µg/mL] | MIC [7] [µg/mL] | MIC [8] [µg/mL] | MIC [9] [µg/mL] | MIC [10] [µg/mL] | other results
C[C@@H](O)[C@H]1C(=O)N2C(C(=O)[O-])=C(SC3Cn4cnc[n+]4C3)[C@H](C)[C@H]12 (stereo partly shown) [Biapenem, biapenem] | 32 | 16 | 4 | 16 | 64 | 32 | 32 | 8 | 32 | 32 | 
CO/N=C(\C(=O)N[C@@H]1C(=O)N2C(C(=O)[O-])=C(C[N+]3(C)CCCC3)CS[C@H]12)c1csc(N)n1 [Cefepime] | 128 | > 64 | > 128 | 128 | 32 | 128 | 64 | > 64 | > 128 | 128 | 
CSc1ccc2c(c1C(=O)O)OB(O)[C@@H]1C[C@H]21 [Compound 1] |  |  |  |  |  |  |  |  |  |  | IC50 (OXA-10): 10 nM; IC50 (OXA-23): 0.8 nM; IC50 (IMP-1): < 5.1 nM; IC50 (OXA-48): 0.2 nM; IC50 (VIM-1): 1.5 nM; IC50 (NDM-1): 13.1 nM; IC50 (VIM-2): 0.1 nM; IC50 (NDM-5): 15.3 nM; IC50 (KPC-2): 1.2 nM; IC50 (Ampc): 17.2 nM; IC50 (CTX-M-15): 1.3 nM
